Calls of active or inactive are those of the source. No cut-off for these calls is given here.
Assays:
[1] = target: Tubulin (Homo sapiens) (UniProt P68371+Q9H4B7+P0DPH7+P68366+Q13509+Q71U36+P04350+Q3ZCM7+P07437+P68363+Q9BQE3+Q6PEY2+Q13885+Q9BVA1+Q9BUF5); assay: Inhibition of tubulin polymerization in human MCF7 cells at 2 uM after 24 hrs by FITC-conjugated immunostaining assay; format: cell-based
[2] = system: MCF7; assay: Inhibition of HDAC1 protein expression in human MCF7 cells at 2 uM after 24 hrs by Western blotting; format: functional, cell-based
[3] = system: MCF7; assay: Inhibition of HDAC2 protein expression in human MCF7 cells at 2 uM after 24 hrs by Western blotting; format: functional, cell-based
[4] = system: MCF7; assay: Inhibition of HDAC3 protein expression in human MCF7 cells at 2 uM after 24 hrs by Western blotting; format: functional, cell-based
[5] = system: MCF7; assay: Inhibition of HDAC8 protein expression in human MCF7 cells at 2 uM after 24 hrs by Western blotting; format: functional, cell-based
[6] = system: MCF7; assay: Increase in p21 protein level in human MCF7 cells at 2 uM after 24 hrs by Western blotting; format: functional, cell-based
[7] = system: MCF7; assay: Induction of apoptosis in human MCF7 cells assessed as PARP-cleavage at 8 uM after 24 hrs by Western blot analysis; format: functional, cell-based
[8] = system: MCF7; assay: Induction of apoptosis in human MCF7 cells assessed as caspase-7 activation at 8 uM after 24 hrs by Western blot analysis; format: functional, cell-based
[9] = system: MCF7; assay: Anticancer activity against human MCF7 cells by SRB method; format: functional
[10] = system: ZR-75-1; assay: Anticancer activity against human ZR-75-1 cells by SRB method; format: functional
[11] = system: A2780; assay: Anticancer activity against human A2780 cells by SRB method; format: functional
[12] = system: COLO 205; assay: Anticancer activity against human COLO205 cells by SRB method; format: functional
[13] = system: SiHa; assay: Anticancer activity against human SiHa cells by SRB method; format: functional
[14] = system: A549; assay: Anticancer activity against human A549 cells by SRB method; format: functional
[15] = system: KB; assay: Anticancer activity against human KB cells by SRB method; format: functional
[16] = system: MCF7; assay: Anticancer activity against human MCF7 cells assessed as cell death at 2 uM after 24 hrs by MTT assay; format: functional
[17] = system: MCF7; assay: Induction of cell cycle arrest in human MCF7 cells assessed as accumulation of cells in G0 phase at 2 uM after 24 hrs by flow cytometry relative to untreated control; format: functional
[18] = system: MCF7; assay: Induction of cell cycle arrest in human MCF7 cells assessed as accumulation of cells in G1 phase at 2 uM after 24 hrs by flow cytometry relative to untreated control; format: functional
[19] = system: MCF7; assay: Induction of cell cycle arrest in human MCF7 cells assessed as accumulation of cells in S phase at 2 uM after 24 hrs by flow cytometry relative to untreated control; format: functional
[20] = system: MCF7; assay: Induction of cell cycle arrest in human MCF7 cells assessed as accumulation of cells in G2/M phase at 2 uM after 24 hrs by flow cytometry relative to untreated control; format: functional
[21] = system: MCF7; assay: Induction of cell cycle arrest in human MCF7 cells assessed as accumulation of cells in G0 phase at 4 uM after 24 hrs by flow cytometry relative to untreated control; format: functional
[22] = system: MCF7; assay: Induction of cell cycle arrest in human MCF7 cells assessed as accumulation of cells in G1 phase at 4 uM after 24 hrs by flow cytometry relative to untreated control; format: functional
[23] = system: MCF7; assay: Induction of cell cycle arrest in human MCF7 cells assessed as accumulation of cells in S phase at 4 uM after 24 hrs by flow cytometry relative to untreated control; format: functional
[24] = system: MCF7; assay: Induction of cell cycle arrest in human MCF7 cells assessed as accumulation of cells in G2/M phase at 4 uM after 24 hrs by flow cytometry relative to untreated control; format: functional
[25] = system: MCF7; assay: Induction of cell cycle arrest in human MCF7 cells assessed as accumulation of cells in G0 phase at 8 uM after 24 hrs by flow cytometry relative to untreated control; format: functional
[26] = system: MCF7; assay: Induction of cell cycle arrest in human MCF7 cells assessed as accumulation of cells in G1 phase at 8 uM after 24 hrs by flow cytometry relative to untreated control; format: functional
[27] = system: MCF7; assay: Induction of cell cycle arrest in human MCF7 cells assessed as accumulation of cells in S phase at 8 uM after 24 hrs by flow cytometry relative to untreated control; format: functional
[28] = system: MCF7; assay: Induction of cell cycle arrest in human MCF7 cells assessed as accumulation of cells in G2/M phase at 8 uM after 24 hrs by flow cytometry relative to untreated control; format: functional
[29] = system: MCF7; assay: Induction of cell cycle arrest in human MCF7 cells assessed as accumulation of cells in G0 phase at 2 uM after 24 hrs by flow cytometry (reference value: 2.9%); format: functional
[30] = system: MCF7; assay: Induction of cell cycle arrest in human MCF7 cells assessed as accumulation of cells in G1 phase at 2 uM after 24 hrs by flow cytometry (reference value: 46%); format: functional
[31] = system: MCF7; assay: Induction of cell cycle arrest in human MCF7 cells assessed as accumulation of cells in S phase at 2 uM after 24 hrs by flow cytometry (reference value: 14.87%); format: functional
[32] = system: MCF7; assay: Induction of cell cycle arrest in human MCF7 cells assessed as accumulation of cells in G2/M phase at 2 uM after 24 hrs by flow cytometry (reference value: 36.23%); format: functional
[33] = system: MCF7; assay: Induction of cell cycle arrest in human MCF7 cells assessed as accumulation of cells in G0 phase at 4 uM after 24 hrs by flow cytometry (reference value: 3.22%); format: functional
[34] = system: MCF7; assay: Induction of cell cycle arrest in human MCF7 cells assessed as accumulation of cells in G1 phase at 4 uM after 24 hrs by flow cytometry (reference value: 65.58%); format: functional
[35] = system: MCF7; assay: Induction of cell cycle arrest in human MCF7 cells assessed as accumulation of cells in S phase at 4 uM after 24 hrs by flow cytometry (reference value: 5.55%); format: functional
[36] = system: MCF7; assay: Induction of cell cycle arrest in human MCF7 cells assessed as accumulation of cells in G2/M phase at 4 uM after 24 hrs by flow cytometry (reference value: 25.65%); format: functional
[37] = system: MCF7; assay: Induction of cell cycle arrest in human MCF7 cells assessed as accumulation of cells in G0 phase at 8 uM after 24 hrs by flow cytometry (reference value: 3.22%); format: functional
[38] = system: MCF7; assay: Induction of cell cycle arrest in human MCF7 cells assessed as accumulation of cells in G1 phase at 8 uM after 24 hrs by flow cytometry (reference value: 65.58%); format: functional
[39] = system: MCF7; assay: Induction of cell cycle arrest in human MCF7 cells assessed as accumulation of cells in S phase at 8 uM after 24 hrs by flow cytometry (reference value: 5.55%); format: functional
[40] = system: MCF7; assay: Induction of cell cycle arrest in human MCF7 cells assessed as accumulation of cells in G2/M phase at 8 uM after 24 hrs by flow cytometry (reference value: 25.65%); format: functional

## COc1cc2c(cc1OCCCCCOc1ccc(C(c3c[nH]c4ccccc34)c3c[nH]c4ccccc34)cc1)N=C[C@@H]1CCCN1C2=O
[1]
  inhibition: Active
[2]
  inhibition: Active
[3]
  inhibition: Active
[4]
  inhibition: Active
[5]
  inhibition: Active
[6]
  Activity: Active
[7]
  Activity: Active
[8]
  Activity: Active
[9]
  GI50: 140 nM
[10]
  GI50: 120 nM
[11]
  GI50: 110 nM
[12]
  GI50: 26100 nM
[13]
  GI50: 180 nM
[14]
  GI50: 2400 nM
[15]
  GI50: 130 nM
[16]
  Activity: 50%
[17]
  Activity: 3.57%
[18]
  Activity: 40.67%
[19]
  Activity: 9.08%
[20]
  Activity: 46.67%
[21]
  Activity: 16.11%
[22]
  Activity: 68.33%
[23]
  Activity: 6.95%
[24]
  Activity: 8.6%
[25]
  Activity: 50.15%
[26]
  Activity: 46.11%
[27]
  Activity: 2.32%
[28]
  Activity: 1.41%
[29]
  Activity: 3.96%
[30]
  Activity: 41.51%
[31]
  Activity: 9.34%
[32]
  Activity: 45.19%
[33]
  Activity: 16.45%
[34]
  Activity: 68.23%
[35]
  Activity: 6.97%
[36]
  Activity: 8.35%
[37]
  Activity: 51.96%
[38]
  Activity: 44.26%
[39]
  Activity: 2.04%
[40]
  Activity: 1.75%

— ChEMBL document CHEMBL1938244, “Synthesis, anticancer activity and apoptosis inducing ability of bisindole linked pyrrolo[2,1-c][1,4]benzodiazepine conjugates” (2012)
